Reference: US6992079B2, “Substituted 11-phenyl-dibenzazepine compounds useful for the treatment or prevention of diseases characterized by abnormal cell proliferation” (President Fellows of Harvard College, priority 1997, dated 2006)
Read-outs that look alike come from different tables or passages of the source.

Legend:
Assay type in all cases: cell-based
HS 578T = experiment: In-Vitro Testing SRB panel: Breast Cancer; details: HS 578T
NCI-H460 = test system: NCI-H460
ROP-62 = test system: ROP-62
NCI/ADR-RES = experiment: In-Vitro Testing SRB panel: Breast Cancer
MDA-N = experiment: In-Vitro Testing SRB panel: Breast Cancer
A498 = experiment: In-Vitro Testing SRB panel: Renal Cancer
KM12 = experiment: In-Vitro Testing SRB panel: Colon Cancer
HT29 = experiment: In-Vitro Testing SRB panel: Colon Cancer
SF-295 = experiment: In-Vitro Testing SRB panel: CNS Cancer; details: Homo sapiens, SF-295
[1] = Homo sapiens, read-out: LC50 (the source's name)

SMILES: COc1ccc2c(c1)CN(C(=O)c1ccc([N+](=O)[O-])cc1)c1ccc(Cl)cc1C2c1ccccc1Cl (stereo not shown) [Compound 30]
- TGI (HS 578T): >1.00E−04 Molar
- Percent Growth (HS 578T; Log10 concentration −4.0 Molar): 11%
- Percent Growth (HS 578T; Log10 concentration −5.0 Molar): 51%
- Percent Growth (HS 578T; Log10 concentration −6.0 Molar): 30%
- Percent Growth (HS 578T; Log10 concentration −7.0 Molar): 91%
- Percent Growth (HS 578T; Log10 concentration −8.0 Molar): 87%
- CC50 (HS 578T; [1]): > 100 µM
- GI50 (NCI-H460; Homo sapiens, NCI-H460): 2.12 µM
- CC50 (NCI-H460; Homo sapiens, NCI-H460, read-out: LC50 (the source's name)): > 100 µM
- TGI (NCI-H460; NCI-H460): >1.00E−04 Molar
- Percent Growth (NCI-H460; NCI-H460, Log10 concentration −4.0 Molar): 20%
- Percent Growth (NCI-H460; NCI-H460, Log10 concentration −5.0 Molar): 16%
- Percent Growth (NCI-H460; NCI-H460, Log10 concentration −6.0 Molar): 67%
- Percent Growth (NCI-H460; NCI-H460, Log10 concentration −7.0 Molar): 97%
- Percent Growth (NCI-H460; NCI-H460, Log10 concentration −8.0 Molar): 91%
- GI50 (ROP-62; Homo sapiens): > 100 µM
- CC50 (ROP-62; Homo sapiens, ROP-62, read-out: LC50 (the source's name)): > 100 µM
- TGI (ROP-62; ROP-62): >1.00E−04 Molar
- Percent Growth (ROP-62; ROP-62, Log10 concentration −4.0 Molar): 50%
- Percent Growth (ROP-62; ROP-62, Log10 concentration −5.0 Molar): 67%
- Percent Growth (ROP-62; ROP-62, Log10 concentration −6.0 Molar): 95%
- Percent Growth (ROP-62; ROP-62, Log10 concentration −7.0 Molar): 102%
- Percent Growth (ROP-62; ROP-62, Log10 concentration −8.0 Molar): 96%
- TGI (NCI/ADR-RES): >1.00E−04 Molar
- GI50 (NCI/ADR-RES; Homo sapiens): 62.4 µM
- CC50 (NCI/ADR-RES; [1]): > 100 µM
- Percent Growth (NCI/ADR-RES; Log10 concentration −4.0 Molar): 47%
- Percent Growth (NCI/ADR-RES; Log10 concentration −5.0 Molar): 61%
- Percent Growth (NCI/ADR-RES; Log10 concentration −6.0 Molar): 104%
- Percent Growth (NCI/ADR-RES; Log10 concentration −7.0 Molar): 117%
- Percent Growth (NCI/ADR-RES; Log10 concentration −8.0 Molar): 124%
- TGI (MDA-N): >1.00E−04 Molar
- CC50 (MDA-N; [1]): > 100 µM
- Percent Growth (MDA-N; Log10 concentration −4.0 Molar): 51%
- Percent Growth (MDA-N; Log10 concentration −5.0 Molar): 39%
- Percent Growth (MDA-N; Log10 concentration −6.0 Molar): 83%
- Percent Growth (MDA-N; Log10 concentration −7.0 Molar): 93%
- Percent Growth (MDA-N; Log10 concentration −8.0 Molar): 101%
- TGI (A498; A498): >1.00E−04 Molar
- Percent Growth (A498; A498, Log10 concentration −4.0 Molar): 54%
- Percent Growth (A498; A498, Log10 concentration −5.0 Molar): 64%
- Percent Growth (A498; A498, Log10 concentration −6.0 Molar): 87%
- Percent Growth (A498; A498, Log10 concentration −7.0 Molar): 102%
- Percent Growth (A498; A498, Log10 concentration −8.0 Molar): 95%
- GI50 (A498; Homo sapiens, A498): > 100 µM
- CC50 (A498; Homo sapiens, A498, read-out: LC50 (the source's name)): > 100 µM
- GI50 (KM12; Homo sapiens, KM12): 3.06 µM
- CC50 (KM12; Homo sapiens, KM12, RM12, read-out: LC50 (the source's name)): > 100 µM
- TGI (KM12; RM12): >1.00E−04 Molar
- Percent Growth (KM12; RM12, Log10 concentration −4.0 Molar): 36%
- Percent Growth (KM12; RM12, Log10 concentration −5.0 Molar): 41%
- Percent Growth (KM12; RM12, Log10 concentration −6.0 Molar): 59%
- Percent Growth (KM12; RM12, Log10 concentration −7.0 Molar): 91%
- Percent Growth (KM12; RM12, Log10 concentration −8.0 Molar): 95%
- TGI (HT29; HT29): >1.00E−04 Molar
- Percent Growth (HT29; HT29, Log10 concentration −4.0 Molar): 20%
- Percent Growth (HT29; HT29, Log10 concentration −5.0 Molar): 22%
- Percent Growth (HT29; HT29, Log10 concentration −6.0 Molar): 70%
- Percent Growth (HT29; HT29, Log10 concentration −7.0 Molar): 93%
- Percent Growth (HT29; HT29, Log10 concentration −8.0 Molar): 91%
- GI50 (HT29; Homo sapiens, HT-29): 2.63 µM
- CC50 (HT29; Homo sapiens, HT-29, HT29, read-out: LC50 (the source's name)): > 100 µM
- GI50 (SF-295): 6.49 µM
- CC50 (SF-295; read-out: LC50 (the source's name)): > 100 µM
